Test [1] deals with NL5901 strain expressing α-synuclein in muscle cells. In words: Parkinson's disease model: mobility of NL5901 strain. The test is classed as in vivo, C. elegans. The settings on record: 1 μg/ml. An excerpt:
We have studied the anatomical location of sul-2 expression from an extrachromosomal array and in single-copy insertion transgenic strains. […] There is no detectable expression in the germline in any transgenic strains (FIG. 2n and FIG. 10, 11a-b). ASE neurons are responsible for the attractive response of Na+ and Cl−, among others. Defects in odour sensing affect longevity. Therefore, we tested the ability of sul-2 mutants to respond to Cl− or Na+ and found no differences compared to wild type animals (FIG. 11c-d). Furthermore, sul-2 mutation increases the longevity of daf-10(m79), a long-lived mutant defective in sensory cilia formation25 (FIG. 11e). […] Reduction of sul-2 improves aging associated diseases in C. elegans Aging is considered the main risk factor for the onset of neurodegenerative disorders like Parkinson, Huntington, or Alzheimer's diseases. These disorders are caused by the progressive decline of proteostasis, which results in protein aggregation that compromises cellular functions and finally causes cell death. Germline-deficient C. elegans delay the symptoms derived from the proteotoxicity of ectopically expressed human β-amyloid (βA). We tested if sul-2 mutations or STX64 treatment improves the symptoms of C. elegans models for neurodegenerative diseases.

Test [2] deals with mammalian model with intrahippocampal βA oligomers. As to conditions: local administration; previously reported; cited from earlier work.
Test [3] deals with C. elegans. The experiment in a line: Lifespan assays in C. elegans. It is filed as in vivo, Caenorhabditis elegans. The settings on record: for life span / longevity: wild type background, FIG. 4f-g, FIG. 13c-d. How it is done: F2 L4 animals were shifted to 25° C. (t=0). ES treatment started at L4 stage, control and treated plates were prepared fresh and animals transferred each three days until death. Animals lost or dead by non-physiological causes were censured. Survival curves were generated using the product-limit method of Kaplan and Meier. The log-rank (Mantel-Cox) test was used to evaluate differences in survival and […] lower than 0.05 were considered significant.

Test [4] relates to 16-month-old mice. The experiment in a line: Open Field test. The test is classed as in vivo. The settings on record: FIG. 20; for habituation ability: aged animals, Open Field 15 minutes. How it is done:
(§1) The “Open Field” is a test where the mouse must explore an unknown space for 15 minutes. In this test, both mobility and habituation (cognitive parameter that measures the individual's ability to recognize the environment) can be studied. On the other hand, the “Y maze” test is a test where the mouse explores the maze for 6 minutes. This test evaluates the distance traveled as a measure of mobility and the ability to visit triplets of arms without repeating any of them as a sign of immediate memory.

The test system of test [5] is aged mice. In words: Passive avoidance test in aged mice (STM and LTM). The test is classed as in vivo. As to conditions: aged mice, vs vehicle-treated, FIG. 21. How it is done:
(§2) The first, object recognition, after training with identical objects, tests the ability to identify different objects exposed together with a familiar one. When this happens, the object discrimination index is positive and higher than 0.1. […] For this purpose, during training, the entry latency to the preferred site is established and the aversive stimulus is administered.
During short- and long-term memory tests (STM and LTM) if the mouse associated the preferred place to the aversive stimulus, the input latency increases with respect to training.

Test [6] deals with GMC101 strain expressing human β-amyloid in muscle. In words: Alzheimer's disease model: thermodependent paralysis of GMC101 strain. The test is classed as in vivo, C. elegans. As to conditions: 1 μg/ml. The source says: In this model, GFP-labelled dopaminergic neurons die due to α-synuclein toxicity. […] We also tested two different strains of Alzheimer's disease (AD) in worms, where immobility is caused by expression of βA protein in muscle cells.

In test [7] the test system is daf-2(e1370). The experiment in a line: Developmental arrest (dauer / L1) at 25° C. The settings on record: daf-2(e1370) background. It is filed as in vivo, C. elegans. How it is done: Worms were growth at 16° C. until L4, then shifted to 25° C. considering this Day 0 of adulthood. The pumping was counted under the Leica stereoscope at 100× magnification for 30 seconds. Data display from two independent biological assays (n=30 per day). Two-tailed Mann-Whitney t-test, ***p=0.0006. e Thrashing in sul-2(gk187) is similar to wild type but is slightly lower in sul-2 (pv17) at 25° C. on day 1 of adulthood. On day 6 at 25° of adulthood, the trashing on sul-2(gk187) is lower than wild type and sul-(pv17), with no differences among these last strains. The population of sul-2(gk17) at day 6 seems to distribute into two different populations, one with almost no thrashing and other with values similar to wild type a sul-2(pv17). […] In this condition, all animals from daf-2(e1370); sul-2(pv17) double mutants arrest at L1 stage. Similarly, more than 50% of animals arrest in L1 stage in daf-2(m577); sul-2(pv17) background, while none of the single mutants show this phenotype. i Example of sul-2(pv17) larvae, dauer larval arrest of daf-2(e1370) or L1 arrest of daf-2(e1370); sul-2 (pv17) and daf-2(e1370); sul-2(gk187) at 25° C. Animals were grown up to L4 at 16° C., then shifted at 25° C., progeny were scored or imaged after 72 hours. Photographs were taken in a Leica scope.

Test [8] deals with aged mice. The experiment in a line: Object recognition test in aged mice. It is filed as in vivo. The settings on record: aged mice, vs vehicle-treated, FIG. 21. How it is done: as §2
The test system of test [9] is 16-month-old mice. The experiment in a line: Y maze test. It is filed as in vivo. The settings on record: aged animals, Y maze 6 minutes, FIG. 20. How it is done: as §1

“Also recorded” adds a separate entry of the source. Structures can show the parent of a compound that is named as a salt.

For `C[C@]12CC[C@H](O)CC1=CC[C@@H]1[C@@H]2CC[C@]2(C)C(=O)CC[C@@H]12` [DHEA], the mobility with age result in [1] is “No effect is observed; also recorded: showed no effect”.
Take `CCCCCCCCCCCCCC(=O)NCCc1ccc(OS(N)(=O)=O)cc1` [DU-14]: the memory loss result in test [2] was “could alleviate memory loss”.
Take `C[C@]12CC[C@H]3[C@@H](CCC4=CC(=O)CC[C@@]43C)[C@@H]1CC[C@H]2OS(=O)(=O)O` [ES, N,N-diethylethanamine;[(8R,9S,10R,13S,14S,17R)-10,13-dimethyl-3-oxo-1,2,6,7,8,9,11,12,14,15,16,17-dodecahydrocyclopenta[a]phenanthren-17-yl]hydrogen sulfate]: the lifespan result in [3] (FIG. 15, treatment from L4 stage, 25° C., fer-15(b26) background, p<0.05 Log-Rank (Mantel-Cox)) is given as “significantly increased life span”; in test [3] (sul-2(gk187) background, 1 μg/ml, FIG. 4f) it was “does not further increase”; in test [3] (sul-2(pv17) background, 1 μg/ml, FIG. 13c,d), “does not increase further”. Besides, in test [3] (sul-2 mutants backgrounds), the longevity entry is listed as “did not further increase longevity”. Further, the “life span / longevity” value in test [3] (1 μg/ml) is on record as “increases life span; also recorded: increased in longevity; also recorded: increases lifespan”. Also, in test [1], the mobility with age result is recorded as “improved the mobility; also recorded: better result”. Also, the “motor ability (mobility)” value in [4] (16-month-old mice, Open Field mobility and Y maze distance traveled) is given as “tend to improve”. The habituation ability result is recorded as “tend to improve” in [4] and “are improved” in test [4] (listed as E-S). The “learning (STM) and memory (LTM), passive avoidance test” value in [5] was “showed significantly both learning (STM) and ability to store information (memory); also recorded: significant improvement in both learning (STM) and ability to store information (memory)”; in test [5] (listed as E-S) it was “showed significantly both learning (STM) and ability to store information (memory)”. The paralysis phenotype result is listed as “is ameliorate” in test [6] (FIG. 3h, FIG. 4b) and “is reduced” in test [6] (normal NGM plates, FIG. 13a). Besides, the L1 arrest result in [7] was “increase”. For the same molecule, the “learning and memory, object recognition test” value in [8] is “showed significantly both learning (STM) and ability to store information (memory); also recorded: significant improvement in both learning (STM) and ability to store information (memory)”; in [8] (listed as E-S), “showed significantly both learning (STM) and ability to store information (memory)”. In addition, the immediate memory entry in test [9] is given as “tend to improve”; in test [9] (listed as E-S) it was “are improved”.
For the molecule `C[C@]12CC[C@H]3[C@@H](CCC4=CC(=O)CC[C@@]43C)[C@@H]1CC[C@@H]2O` [T, testosterone], the figures for the mobility with age result in [1] and in test [1] (listed as testosterone) were “No effect is observed” and “showed no effect”, respectively.
Take `C[C@]12CC[C@H]3[C@@H](CCC4=CC(=O)CC[C@@]43C)[C@@H]1CC[C@@H]2OS(=O)(=O)O` [TS, [(8R,9S,10R,13S,14S,17S)-10,13-dimethyl-3-oxo-1,2,6,7,8,9,11,12,14,15,16,17-dodecahydrocyclopenta[a]phenanthren-17-yl] hydrogen sulfate]: the “life span / longevity” value in test [3] (1 μg/ml) is listed as “does not affect longevity; also recorded: do not affect”. Also, in [1], the mobility with age entry is “improved the mobility”. Moreover, the paralysis phenotype entry is recorded as “is ameliorate” in test [6] (FIG. 3h, FIG. 4b) and “is reduced” in test [6] (normal NGM plates, FIG. 13a). For the same molecule, the L1 arrest result in [7] is “increase”.
On to dehidroepiandrosterone sulfate [DHEAS], for which the “life span / longevity” value in test [3] (1 μg/ml) was “does not affect longevity; also recorded: do not affect”. For the same molecule, in [1], the mobility with age entry was “improved the mobility”. Also, in [7], the L1 arrest result is listed as “increase”.
With pregnenolone sulfate [PregS], the mobility with age entry was “No effect is observed” in test [1] and “showed no effect” in test [1] (listed as pregnenolone sulfate).

Values taken from patent publication US20240108637A1, “EPITE[…] AND/OR A STEROID SULFATASE INHIBITOR FOR USE IN TREATING OR IMPROVING AGE RELATED COGNITIVE IMPAIRMENT” (U[…] DE OLAVIDE, priority 2020, published 2024).
